Data: patent publication US20180036330A1, “NUCLEOTIDE PHOSPHORAMIDATE FORMULATION” (priority 2015, published 2018)
≈ marks a conversion by molar mass, not a printed value. Like-named read-outs stand apart in the source and are kept apart here.

Assays:
[1] = test system: HCV replicon (NS3-NS5B regions of HCV type 1 b) in Huh-7 luc/neo cells; test: HCV replicon assay (Huh-Luc, luciferase); type: cell-based; conditions: Hepatitis C virus, Huh-7, 72 h, three days incubation, luciferase activity, n>10
Source text: The compositions of the invention may be examined for activity in the inhibition of HCV RNA replication in a cellular assay aimed at identifying compounds that inhibit a HCV functional cellular replicating cell line, also known as HCV replicons. A suitable cellular assay is based on a bicistronic expression construct, as described by Lohmann et al. (1999), Science vol. 285 pp. 110-113 with modifications described by Krieger et al. (2001), Journal of Virology 75: 4614-4624, in a multi-target screening strategy.
The assay utilizes the stably transfected cell line Huh-7 luc/neo (hereafter referred to as Huh-Luc). […]
The replicon cells are plated in 384 well plates in the presence of the test and control compounds which are added in various concentrations. Following an incubation of three days, HCV replication is measured by assaying luciferase activity (using standard luciferase assay substrates and reagents and a Perkin Elmer ViewLux™ ultraHTS microplate imager). […] The inhibitory activity of a compound on luciferase activity is monitored on the Huh-Luc cells, enabling a dose-response curve for each test compound. […]

[2] = Solubility of Compound 1 in ethanol; type: physicochemical; conditions: for solubility: 99% ethanol, organic solvent or mixture, heated to 50-60° C., transparent syrup, read-out: solubility in ethanol: final concentration fully dissolved
Protocol: 100.43 mg of Compound 1 was weighed into a glass vial. 37 μl of 99% ethanol was added so that final concentration was 2700 mg/ml. The formulation was heated to 50-60° C. during gentle agitation until the drug substance was fully dissolved. A transparent syrup was obtained and the solution remained transparent after cooling and storage at room temperature for more than 48 hours with no visible crystals.
200.26 mg of Compound 1 was weighed into a glass vial. 67 μl of 99% ethanol was added so that final concentration was 3000 mg/ml. The formulation was heated to 50-60° C. during gentle agitation until the drug substance was fully dissolved. A transparent syrup was obtained.

Huh-Luc cell line = test: Cell toxicity in the Huh-Luc cell line; type: cell-based
[3] = Basket dissolution test USP method 711 of Compound 1 in hard gelatin capsule (Example 3); type: physicochemical; conditions: for Mean % Compound 1 released: n = 2
Protocol: Dissolution test. 350 mg of Compound 1 was filled into a hard gelatin capsule. A basket dissolution test was performed according to USP method 711, at 100 rpm at 37° C., 900 g media, 5 ml sampling after 20, 45, 90 minutes. Samples were analysed by RP-UPLC. […] The lump was very sticky when wet but dried to a hard lump in air.

[4] = solvent not given, context ethanol, cited from earlier work

| Structure (SMILES) | EC50 [1] [nM] | time solution remained transparent with no visible crystals ([2]; 2700 mg/ml in 99% ethanol, after cooling, storage at room temperature) | appearance after cooling and storage at room temperature ([2]; 3000 mg/ml in 99% ethanol) | solubility ([2]; 100.43 mg in 37 μl 99% ethanol) [mg/mL] | solubility ([2]; 200.26 mg in 67 μl 99% ethanol) [mg/mL] | cell toxicity (Huh-Luc cell line) [µM] | Mean % Compound 1 released ([3]; 0.1M HCl, 20 min, 350 mg in hard gelatin capsule, 37° C., 100 rpm) [%] | Mean % Compound 1 released ([3]; 0.1M HCl, 45 min, 350 mg in hard gelatin capsule) [%] | Mean % Compound 1 released ([3]; 0.1M HCl, 90 min, 350 mg in hard gelatin capsule) [%] | observation of capsule during dissolution test ([3]; 350 mg in hard gelatin capsule, 90 min) | Mean % Compound 1 released ([3]; FaSSIF, 20 min, 350 mg in hard gelatin capsule) [%] | Mean % Compound 1 released ([3]; FaSSIF, 45 min, 350 mg in hard gelatin capsule) [%] | Mean % Compound 1 released ([3]; FaSSIF, 90 min, 350 mg in hard gelatin capsule) [%] | solubility of the lump in 70% EtOH ([3]; lump formed from capsule, 70% EtOH) | published solubility ([4]; Cayman Chemical item no 15402 and Apex BT Catalog no. A3738) [mg/mL] | published solubility ([4]; Selleckchem Catalog no S2794) [mg/mL] |
| --- | --- | --- | --- | --- | --- | --- | --- | --- | --- | --- | --- | --- | --- | --- | --- | --- |
| CC(C)OC(=O)[C@H](C)N[P@](=O)(OC[C@H]1O[C@@H](n2ccc(=O)[nH]c2=O)[C@@](F)(Cl)[C@@H]1O)Oc1ccccc1 [Compound 1, (S)-Isopropyl 2-(((S)-(((2R,3R,4S,5R)-4-chloro-5-(2,4-dioxo-3,4-dihydropyrimidin-1(2H)-yl)-4-fluoro-3-hydroxytetrahydrofuran-2-yl)methoxy)(phenoxy)phosphoryl)amino)propanoate] | 55 | more than 48 hours | solidified to a slightly opaque semisolid with no visible crystals | 2700 (≈ 4910 mM) | 3000 (≈ 5460 mM) | > 50 | 2 | 3 | 5 | water insoluble lump that did not dissolve or change much during 90 min | 2 | 5 | 8 | surprisingly soluble | – | – |
| CC(C)OC(=O)[C@H](C)N[P@](=O)(OC[C@H]1O[C@@H](n2ccc(=O)[nH]c2=O)[C@](C)(F)[C@@H]1O)Oc1ccccc1 [sofosbuvir] | – | – | – | – | – | – | – | – | – | – | – | – | – | – | 25 | 100 |
